Data published in patent publication US11331327B2, “Antibacterial use of halogenated salicylanilides” (UNION therapeutics A/S, priority 2014, dated 2022).
Converted amounts (≈) assume the structure as drawn. Where two headings read alike, the source gives them in different places.

Tested on: S. aureus clinical isolates and S. aureus ATCC 29213
Assay: MIC assay according to CLSI criteria, Example 2, S. aureus strains
Format: cell-based, Staphylococcus aureus
Details: for MIC: Staphylococcus aureus, read-out: MIC
Experimental: Strains were conserved in Luria Bertani (LB) Broth (S. aureus) or Brain Heart Infusion (BHI) (S. pyogenes) supplemented with glycerol 15% (v/v) at −80° C., and reactivated by isolation on LB (S. aureus) or BHI (S. pyogenes) agar plates. Strains were cultivated in Mueller Hinton (MH) Broth-cation adjusted (S. aureus) or BHI (S. pyogenes). All strains were cultivated aerobically (microaerobically for S. pyogenes strains) at 37° C.
Bacterial cultures were stopped in their exponential growth phase and plates were inoculated with the approximate concentration of 5×10^5 cells per well. Plates were incubated at 37° C. for 18 hours (S. aureus) or 24 hours (S. pyogenes).

[1] = ATCC29213, Staphylococcus aureus strains
[2] = S. aureus strains with MIC 0.5 μg/ml

In the case of `O=C(Nc1ccc([N+](=O)[O-])cc1Cl)c1cc(Cl)ccc1O` [Niclosamide, 5-chloro-N-(2-chloro-4-nitrophenyl)-2-hydroxybenz-amide], the MIC50 [1] is reported as 0.25 µg/mL (≈ 0.764 µM), the MIC90 [1] is reported as 0.5 µg/mL (≈ 1.53 µM) and the “MIC distribution (percentage of strains)” value [2] is reported as 27%. For the same compound, the “MIC distribution (ratio of strains)” value [2] was “(55/205)”, the “MIC Range values” (Staphylococcus aureus strains) was 0.125 to 0.5 µg/mL and the MIC (ATCC29213, all targeted S. aureus strains, including resistant strains) was no more than 0.5 µg/mL. For the same compound, the MIC (ATCC29213, strain 9-1862936) was 0.5 µg/mL (≈ 1.53 µM), the MIC (ATCC29213, strain 9-2625962) was 0.5 µg/mL (≈ 1.53 µM) and the MIC (ATCC29213, strain 9-2642158) was 0.25 µg/mL (≈ 0.764 µM). It also gave an MIC (ATCC29213, strain 9-2955245) of 0.25 µg/mL (≈ 0.764 µM), an MIC (ATCC29213, strain 9-26422166) of 0.5 µg/mL (≈ 1.53 µM) and an MIC (ATCC29213, strain 000040C) of 0.5 µg/mL (≈ 1.53 µM). For the same compound, the MIC (ATCC29213, strain 000041C) was 0.25 µg/mL (≈ 0.764 µM), the MIC (ATCC29213, strain 000274T) was 0.25 µg/mL (≈ 0.764 µM) and the MIC (ATCC29213, strain 114660U) was 0.25 µg/mL (≈ 0.764 µM). The MIC (ATCC29213, strain 115015T) was 0.5 µg/mL (≈ 1.53 µM), the MIC (ATCC29213, strain 115242C) was 0.5 µg/mL (≈ 1.53 µM) and the MIC (ATCC29213, strain 115263C) was 0.25 µg/mL (≈ 0.764 µM). The MIC (ATCC29213, strain 115268C) was 0.5 µg/mL (≈ 1.53 µM), the MIC (ATCC29213, strain 115273C) was 0.5 µg/mL (≈ 1.53 µM) and the MIC (ATCC29213, strain 115295C) was 0.25 µg/mL (≈ 0.764 µM). The MIC (ATCC29213, strain 115303C) was 0.5 µg/mL (≈ 1.53 µM), the MIC (ATCC29213, strain 115370U) was 0.25 µg/mL (≈ 0.764 µM) and the MIC (ATCC29213, strain 115427C) was 0.25 µg/mL (≈ 0.764 µM). For the same compound, the MIC (ATCC29213, strain 115445C) was 0.5 µg/mL (≈ 1.53 µM), the MIC (ATCC29213, strain 115561C) was 0.25 µg/mL (≈ 0.764 µM) and the MIC (ATCC29213, strain 115584D) was 0.25 µg/mL (≈ 0.764 µM). For the same compound, the MIC (ATCC29213, strain 115628T) was 0.25 µg/mL (≈ 0.764 µM), the MIC (ATCC29213, strain 115690C) was 0.25 µg/mL (≈ 0.764 µM) and the MIC (ATCC29213, strain 115691T) was 0.5 µg/mL (≈ 1.53 µM). The MIC (ATCC29213, strain 115740E) was 0.5 µg/mL (≈ 1.53 µM), the MIC (ATCC29213, strain 115810E) was 0.25 µg/mL (≈ 0.764 µM) and the MIC (ATCC29213, strain 115903T) was 0.5 µg/mL (≈ 1.53 µM). It also gave an MIC (ATCC29213, strain 116122T) of 0.25 µg/mL (≈ 0.764 µM), an MIC (ATCC29213, strain ATCC 29213) of 0.5 µg/mL (≈ 1.53 µM) and an MIC (ATCC29213, strain E5-1029252) of 0.25 µg/mL (≈ 0.764 µM). It also gave an MIC (ATCC29213, strain E5-1029558) of 0.25 µg/mL (≈ 0.764 µM), an MIC (ATCC29213, strain E5-1030440) of 0.25 µg/mL (≈ 0.764 µM) and an MIC (ATCC29213, strain E5-1030469) of 0.25 µg/mL (≈ 0.764 µM). It also gave an MIC (ATCC29213, strain E5-1030472) of 0.5 µg/mL (≈ 1.53 µM), an MIC (ATCC29213, strain E5-1030482) of 0.125 µg/mL (≈ 0.382 µM) and an MIC (ATCC29213, strain E5-1033076 (first line, r202)) of 0.5 µg/mL (≈ 1.53 µM). For the same compound, the MIC (ATCC29213, strain E5-1033076 (second line, r203)) was 0.5 µg/mL (≈ 1.53 µM), the MIC (ATCC29213, strain E5-1033088) was 0.25 µg/mL (≈ 0.764 µM) and the MIC (ATCC29213, strain E5-1033091) was 0.5 µg/mL (≈ 1.53 µM). For the same compound, the MIC (ATCC29213, strain E5-1035277) was 0.5 µg/mL (≈ 1.53 µM), the MIC (ATCC29213, strain E5-1035284) was 0.25 µg/mL (≈ 0.764 µM) and the MIC (ATCC29213, strain E5-1035775) was 0.5 µg/mL (≈ 1.53 µM). The MIC (ATCC29213, strain E5-1035779) was 0.5 µg/mL (≈ 1.53 µM), the MIC (ATCC29213, strain E5-1037958) was 0.5 µg/mL (≈ 1.53 µM) and the MIC (ATCC29213, strain E5-1037971) was 0.25 µg/mL (≈ 0.764 µM). It also gave an MIC (ATCC29213, strain E5-1038279) of 0.5 µg/mL (≈ 1.53 µM), an MIC (ATCC29213, strain E5-1038286) of 0.25 µg/mL (≈ 0.764 µM) and an MIC (ATCC29213, strain E5-1038294) of 0.5 µg/mL (≈ 1.53 µM). It also gave an MIC (ATCC29213, strain E5-1039684) of 0.5 µg/mL (≈ 1.53 µM), an MIC (ATCC29213, strain E5-1039697) of 0.25 µg/mL (≈ 0.764 µM) and an MIC (ATCC29213, strain E5-1041977) of 0.5 µg/mL (≈ 1.53 µM). It also gave an MIC (ATCC29213, strain E5-1041979) of 0.5 µg/mL (≈ 1.53 µM), an MIC (ATCC29213, strain E5-1041980) of 0.25 µg/mL (≈ 0.764 µM) and an MIC (ATCC29213, strain E5-1041987) of 0.5 µg/mL (≈ 1.53 µM). For the same compound, the MIC (ATCC29213, strain E5-1043184) was 0.5 µg/mL (≈ 1.53 µM), the MIC (ATCC29213, strain E5-1043668) was 0.25 µg/mL (≈ 0.764 µM) and the MIC (ATCC29213, strain E5-1045179) was 0.25 µg/mL (≈ 0.764 µM). For the same compound, the MIC (ATCC29213, strain E5-1046019) was 0.25 µg/mL (≈ 0.764 µM), the MIC (ATCC29213, strain E5-1046020) was 0.5 µg/mL (≈ 1.53 µM) and the MIC (ATCC29213, strain E5-1046039) was 0.25 µg/mL (≈ 0.764 µM). It also gave an MIC (ATCC29213, strain E5-1046070) of 0.25 µg/mL (≈ 0.764 µM), an MIC (ATCC29213, strain E5-1046074) of 0.25 µg/mL (≈ 0.764 µM) and an MIC (ATCC29213, strain E5-1046085) of 0.5 µg/mL (≈ 1.53 µM). For the same compound, the MIC (ATCC29213, strain E5-1046096) was 0.5 µg/mL (≈ 1.53 µM), the MIC (ATCC29213, strain E5-1046296) was 0.5 µg/mL (≈ 1.53 µM) and the MIC (ATCC29213, strain E5-1046297) was 0.5 µg/mL (≈ 1.53 µM). It also gave an MIC (ATCC29213, strain E5-1046298) of 0.25 µg/mL (≈ 0.764 µM), an MIC (ATCC29213, strain E5-1046723) of 0.25 µg/mL (≈ 0.764 µM) and an MIC (ATCC29213, strain E5-1047585) of 0.25 µg/mL (≈ 0.764 µM). For the same compound, the MIC (ATCC29213, strain E5-1047606) was 0.5 µg/mL (≈ 1.53 µM), the MIC (ATCC29213, strain E5-1047924) was 0.5 µg/mL (≈ 1.53 µM) and the MIC (ATCC29213, strain E5-1048204) was 0.25 µg/mL (≈ 0.764 µM). It also gave an MIC (ATCC29213, strain E5-1048428) of 0.25 µg/mL (≈ 0.764 µM), an MIC (ATCC29213, strain E5-1048654) of 0.25 µg/mL (≈ 0.764 µM) and an MIC (ATCC29213, strain E5-1048670) of 0.125 µg/mL (≈ 0.382 µM). It also gave an MIC (ATCC29213, strain EEFIC 01) of 0.25 µg/mL (≈ 0.764 µM), an MIC (ATCC29213, strain EEFIC 02) of 0.25 µg/mL (≈ 0.764 µM) and an MIC (ATCC29213, strain K000772) of 0.25 µg/mL (≈ 0.764 µM). It also gave an MIC (ATCC29213, strain K000796) of 0.25 µg/mL (≈ 0.764 µM), an MIC (ATCC29213, strain K000863) of 0.25 µg/mL (≈ 0.764 µM) and an MIC (ATCC29213, strain K000864) of 0.25 µg/mL (≈ 0.764 µM). For the same compound, the MIC (ATCC29213, strain K000866) was 0.25 µg/mL (≈ 0.764 µM), the MIC (ATCC29213, strain K115498) was 0.25 µg/mL (≈ 0.764 µM) and the MIC (ATCC29213, strain K115688) was 0.25 µg/mL (≈ 0.764 µM). For the same compound, the MIC (ATCC29213, strain K115689) was 0.25 µg/mL (≈ 0.764 µM), the MIC (ATCC29213, strain R000019) was 0.5 µg/mL (≈ 1.53 µM) and the MIC (ATCC29213, strain R000020) was 0.5 µg/mL (≈ 1.53 µM). For the same compound, the MIC (ATCC29213, strain R000024) was 0.25 µg/mL (≈ 0.764 µM), the MIC (ATCC29213, strain U115579) was 0.25 µg/mL (≈ 0.764 µM) and the MIC (ATCC 29213 / MRSA, strain MRSA 01) was 0.25 µg/mL (≈ 0.764 µM). The MIC (ATCC 29213 / MRSA, strain MRSA 02) was 0.25 µg/mL (≈ 0.764 µM), the MIC (ATCC 29213 / MRSA, strain MRSA 03) was 0.25 µg/mL (≈ 0.764 µM) and the MIC (ATCC 29213 / MRSA, strain MRSA 04) was 0.25 µg/mL (≈ 0.764 µM). The MIC (ATCC 29213 / MRSA, strain MRSA 05) was 0.25 µg/mL (≈ 0.764 µM), the MIC (ATCC 29213 / MRSA, strain MRSA 06) was 0.25 µg/mL (≈ 0.764 µM) and the MIC (ATCC 29213 / MRSA, strain MRSA 07) was 0.125 µg/mL (≈ 0.382 µM). It also gave an MIC (ATCC 29213 / MRSA, strain MRSA 08) of 0.25 µg/mL (≈ 0.764 µM), an MIC (ATCC 29213 / MRSA, strain MRSA 09) of 0.125 µg/mL (≈ 0.382 µM) and an MIC (ATCC 29213 / MRSA, strain MRSA 10) of 0.25 µg/mL (≈ 0.764 µM). The MIC (ATCC 29213 / MRSA, strain MRSA 11) was 0.25 µg/mL (≈ 0.764 µM).
